Measured values taken from publication PMC4306520 (Journal of Medicinal Chemistry, 2014).

Columns and labels:
[1] = test system: FASN; experiment: Western blot of FASN expression; format: cell-based, human
[2] = test system: BxPC-3 cells; experiment: MTT assay with palmitate supplementation; format: cell-based, human
[3] = test system: BxPC-3 cells; experiment: Apoptosis assay; format: cell-based, human
[4] = test system: BxPC-3 cells; experiment: Intracellular pH; format: cell-based, human; details: BxPC-3, different concentrations, 72 h
[5] = test system: BxPC-3 cells; experiment: Extracellular pH; format: cell-based, human; details: BxPC-3, 100 μM, 72 h, data not shown
[6] = biological target: FASN in PANC-1 cell lysate (Homo sapiens, UniProt P49327); experiment: Serine hydrolase FP probe displacement assay, FASN; format: binding; details: 5 μM FP probe
[7] = test system: other Ser hydrolases in PANC-1 cell lysate; experiment: Serine hydrolase FP probe displacement assay, other serine hydrolases; format: binding, human; details: 5 μM FP probe
[8] = test system: PANC-1/FASN and PANC-1/Vec cells; experiment: Colony formation survival assay, PANC-1/FASN vs PANC-1/Vec; format: cell-based, human

Chain of FASN in PANC-1 cell lysate (P49327 whole entry): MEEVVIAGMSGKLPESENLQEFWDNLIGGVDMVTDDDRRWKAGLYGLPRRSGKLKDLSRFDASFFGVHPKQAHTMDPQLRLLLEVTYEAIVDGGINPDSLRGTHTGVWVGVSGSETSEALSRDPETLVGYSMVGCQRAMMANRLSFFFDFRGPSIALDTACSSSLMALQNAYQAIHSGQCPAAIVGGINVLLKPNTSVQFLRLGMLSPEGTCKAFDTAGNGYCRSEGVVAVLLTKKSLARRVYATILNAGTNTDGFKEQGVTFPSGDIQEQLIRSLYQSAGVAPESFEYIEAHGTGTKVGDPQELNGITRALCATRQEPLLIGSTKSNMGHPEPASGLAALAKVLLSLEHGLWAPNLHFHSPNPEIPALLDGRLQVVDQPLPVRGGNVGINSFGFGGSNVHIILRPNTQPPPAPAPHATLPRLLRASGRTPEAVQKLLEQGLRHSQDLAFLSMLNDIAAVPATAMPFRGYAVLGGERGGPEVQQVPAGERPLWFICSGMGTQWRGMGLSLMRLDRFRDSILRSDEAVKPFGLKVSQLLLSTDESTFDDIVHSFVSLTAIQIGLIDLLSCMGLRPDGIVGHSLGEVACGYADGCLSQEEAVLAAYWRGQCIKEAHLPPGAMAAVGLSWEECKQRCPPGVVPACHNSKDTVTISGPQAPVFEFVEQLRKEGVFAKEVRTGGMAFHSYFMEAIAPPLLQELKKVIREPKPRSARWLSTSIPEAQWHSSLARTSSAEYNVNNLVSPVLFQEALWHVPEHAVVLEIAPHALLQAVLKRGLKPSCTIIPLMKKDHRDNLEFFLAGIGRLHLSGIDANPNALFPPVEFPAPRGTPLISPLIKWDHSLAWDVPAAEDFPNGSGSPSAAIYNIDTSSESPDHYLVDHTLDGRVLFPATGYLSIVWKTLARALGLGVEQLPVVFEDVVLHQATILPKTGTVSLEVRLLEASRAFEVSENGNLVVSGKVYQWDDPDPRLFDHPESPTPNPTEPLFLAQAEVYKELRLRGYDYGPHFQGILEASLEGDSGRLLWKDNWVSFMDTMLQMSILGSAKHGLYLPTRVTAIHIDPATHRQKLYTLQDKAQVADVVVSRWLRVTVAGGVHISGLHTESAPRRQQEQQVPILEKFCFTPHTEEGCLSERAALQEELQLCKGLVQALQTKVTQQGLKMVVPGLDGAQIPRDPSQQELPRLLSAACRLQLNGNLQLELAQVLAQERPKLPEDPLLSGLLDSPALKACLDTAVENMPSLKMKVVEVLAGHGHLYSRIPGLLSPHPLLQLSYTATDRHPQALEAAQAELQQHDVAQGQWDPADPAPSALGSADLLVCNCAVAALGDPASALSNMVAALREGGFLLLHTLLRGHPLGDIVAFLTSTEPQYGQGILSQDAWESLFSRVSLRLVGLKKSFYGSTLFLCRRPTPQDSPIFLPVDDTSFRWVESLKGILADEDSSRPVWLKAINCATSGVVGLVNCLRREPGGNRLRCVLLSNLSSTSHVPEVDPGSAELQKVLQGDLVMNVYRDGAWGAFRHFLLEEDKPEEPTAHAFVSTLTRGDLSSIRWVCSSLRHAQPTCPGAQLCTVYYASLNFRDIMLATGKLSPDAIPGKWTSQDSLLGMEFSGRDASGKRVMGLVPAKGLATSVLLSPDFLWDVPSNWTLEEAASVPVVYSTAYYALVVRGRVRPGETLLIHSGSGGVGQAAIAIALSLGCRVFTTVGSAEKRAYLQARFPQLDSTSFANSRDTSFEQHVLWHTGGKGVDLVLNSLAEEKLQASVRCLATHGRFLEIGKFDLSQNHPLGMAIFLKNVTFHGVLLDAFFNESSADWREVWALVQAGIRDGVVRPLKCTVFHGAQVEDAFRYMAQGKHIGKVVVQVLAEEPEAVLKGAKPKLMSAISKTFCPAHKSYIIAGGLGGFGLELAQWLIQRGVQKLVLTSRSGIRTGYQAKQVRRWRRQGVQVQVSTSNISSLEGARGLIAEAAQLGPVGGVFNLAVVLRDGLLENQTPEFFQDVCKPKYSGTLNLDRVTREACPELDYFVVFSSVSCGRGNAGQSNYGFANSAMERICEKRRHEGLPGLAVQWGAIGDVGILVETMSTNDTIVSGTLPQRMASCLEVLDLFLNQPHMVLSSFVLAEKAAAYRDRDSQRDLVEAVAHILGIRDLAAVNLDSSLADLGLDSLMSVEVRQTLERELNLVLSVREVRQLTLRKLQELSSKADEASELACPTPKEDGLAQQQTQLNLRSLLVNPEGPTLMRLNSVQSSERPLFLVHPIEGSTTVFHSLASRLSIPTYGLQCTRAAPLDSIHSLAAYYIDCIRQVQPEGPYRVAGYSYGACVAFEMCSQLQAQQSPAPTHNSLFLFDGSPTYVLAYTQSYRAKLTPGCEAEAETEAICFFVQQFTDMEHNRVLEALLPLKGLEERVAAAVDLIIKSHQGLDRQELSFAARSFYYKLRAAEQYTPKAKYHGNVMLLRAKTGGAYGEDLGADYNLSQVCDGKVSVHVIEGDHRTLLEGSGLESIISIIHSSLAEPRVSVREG

SMILES	effect of palmitate on FASN expression ([1]; 3.75 μM palmitate, Figure 5B)	effect of palmitate alone on cell survival ([2]; BxPC-3, 3.75 μM)	effect of palmitate supplementation on lansoprazole-induced apoptosis ([3]; 3.75 μM palmitate)	induction of apoptosis (DNA fragments, cleaved PARP-1) ([3]; ELISA 72 h, PARP Western blot 24 h)	effect on intracellular pH [4]	effect on extracellular pH [5]	inhibition of FP serine hydrolase probe labeling of FASN [6]	effect on binding of FP probe to other Ser hydrolases [7]	effect on total FASN level ([1]; lansoprazole treatment, Figure 4D)	effect of palmitate supplementation on lansoprazole cytotoxicity ([2]; 3.75 μM palmitate)	sensitivity of PANC-1/FASN cells versus PANC-1/Vec cells [8]
CCCCCCCCCCCCCCCC(=O)O [palmitate]	did not reduce FASN expression	no significant effect on BxPC-3 cell survival	–	–	–	–	–	–	–	–	–
Cc1c(OCC(F)(F)F)ccnc1C[S+]([O-])c1nc2ccccc2[nH]1 (centres unmarked) [Lansoprazole]	–	–	reduced lansoprazole-induced apoptosis	dose-dependently caused formation of DNA fragments and cleaved PARP-1	no significant effect on intracellular pH	no change in extracellular pH	inhibited labeling of FASN by the FP probe in a dose-dependent manner	no effect on the binding of the FP probe to other Ser hydrolases	no effect on the total FASN level	significantly increased cellular resistance to lansoprazole	significantly more sensitive to lansoprazole than the control PANC-1/Vec cells
